The values below come from article PMC7044277 (Nature Communications, 2020).

Where “and” joins values, the source holds several entries; their conditions need not be identical. Equal values may be shown once.

As usually defined, the EC50 is the concentration giving half of the maximal effect. A lower EC50 goes with an effect from little substance.

Common to all, as to format: cell-based
For one assay, the target named is DRD3 F1063.28A (Homo sapiens, UniProt P35462, F106A). As to the kind of experiment: cell-based.
Assay [1] has as its target T1, 320 non-olfactory GPCRs (Homo sapiens, UniProt P04201).
T1 construct: expressed in transfected cells; host or cells: HTLA cells
The following applies: receptor MAS1; replicate values, Fig_4g.

Assay [2] concerns the target T2, 320 non-olfactory GPCRs (Homo sapiens, UniProt P25116).
T2 construct: expressed in transfected cells; host or cells: HTLA cells

For assay [3], the target named is T3, 320 non-olfactory GPCRs (Homo sapiens, UniProt P46092).
T3 construct: expressed in transfected cells; host or cells: HTLA cells

The target in another assay is DRD2 (D2 long receptor) (Homo sapiens, UniProt P14416). Kind of assay: Gαi1-γ2 dissociation BRET assay, HEK293T. The following applies: agonist. Background: In BRET a luciferase serves as donor, and the signal depends on an acceptor being close.
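Wherever Fold of Basal is given: compound tested at 1 µM final concentration.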
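Wherever GPCRome agonism screen response is given: fold over basal response of each receptor without drug.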

T3 sequence (P46092 whole entry): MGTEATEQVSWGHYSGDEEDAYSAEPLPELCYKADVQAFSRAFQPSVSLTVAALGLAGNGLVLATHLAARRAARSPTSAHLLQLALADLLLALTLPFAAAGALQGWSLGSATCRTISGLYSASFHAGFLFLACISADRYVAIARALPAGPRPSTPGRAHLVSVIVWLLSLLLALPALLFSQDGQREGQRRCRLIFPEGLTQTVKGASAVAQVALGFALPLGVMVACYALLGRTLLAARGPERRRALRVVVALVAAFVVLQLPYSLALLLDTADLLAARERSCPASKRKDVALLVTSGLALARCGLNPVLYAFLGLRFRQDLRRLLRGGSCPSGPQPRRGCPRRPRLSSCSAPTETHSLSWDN
T1 sequence (P04201 whole entry): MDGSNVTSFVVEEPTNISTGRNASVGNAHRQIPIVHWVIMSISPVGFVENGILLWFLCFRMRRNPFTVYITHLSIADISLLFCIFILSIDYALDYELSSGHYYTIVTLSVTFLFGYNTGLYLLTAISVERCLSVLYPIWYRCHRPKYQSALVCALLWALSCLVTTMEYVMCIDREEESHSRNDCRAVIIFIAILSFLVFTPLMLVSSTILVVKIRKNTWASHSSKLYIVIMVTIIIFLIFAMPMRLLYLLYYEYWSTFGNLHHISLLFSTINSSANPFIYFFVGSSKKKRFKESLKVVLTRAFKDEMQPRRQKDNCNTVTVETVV
T2 sequence (P25116 22-425): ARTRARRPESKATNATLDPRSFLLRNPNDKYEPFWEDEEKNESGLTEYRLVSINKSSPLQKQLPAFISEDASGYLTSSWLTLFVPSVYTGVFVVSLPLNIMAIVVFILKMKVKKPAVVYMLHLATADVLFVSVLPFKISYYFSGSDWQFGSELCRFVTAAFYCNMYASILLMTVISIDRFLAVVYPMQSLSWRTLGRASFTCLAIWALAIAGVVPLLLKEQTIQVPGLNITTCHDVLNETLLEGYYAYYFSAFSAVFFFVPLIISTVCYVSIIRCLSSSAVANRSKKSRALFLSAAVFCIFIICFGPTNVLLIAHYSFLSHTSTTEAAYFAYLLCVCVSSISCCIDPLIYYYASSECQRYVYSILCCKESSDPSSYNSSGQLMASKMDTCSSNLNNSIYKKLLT
DRD2 (D2 long receptor), sequence (P14416 whole entry): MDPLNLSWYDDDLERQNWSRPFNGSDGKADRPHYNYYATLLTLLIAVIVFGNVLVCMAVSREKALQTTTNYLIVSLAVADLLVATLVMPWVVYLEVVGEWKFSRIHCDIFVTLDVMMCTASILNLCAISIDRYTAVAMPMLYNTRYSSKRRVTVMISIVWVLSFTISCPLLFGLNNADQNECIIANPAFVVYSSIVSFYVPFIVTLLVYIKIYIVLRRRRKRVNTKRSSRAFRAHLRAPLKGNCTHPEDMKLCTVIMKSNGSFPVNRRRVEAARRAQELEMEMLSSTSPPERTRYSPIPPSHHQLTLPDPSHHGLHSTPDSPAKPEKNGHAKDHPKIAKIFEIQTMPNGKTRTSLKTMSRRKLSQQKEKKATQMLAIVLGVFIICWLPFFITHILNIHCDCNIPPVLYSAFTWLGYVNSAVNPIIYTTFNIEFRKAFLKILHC
DRD3 F1063.28A, sequence (P35462 whole entry F106A): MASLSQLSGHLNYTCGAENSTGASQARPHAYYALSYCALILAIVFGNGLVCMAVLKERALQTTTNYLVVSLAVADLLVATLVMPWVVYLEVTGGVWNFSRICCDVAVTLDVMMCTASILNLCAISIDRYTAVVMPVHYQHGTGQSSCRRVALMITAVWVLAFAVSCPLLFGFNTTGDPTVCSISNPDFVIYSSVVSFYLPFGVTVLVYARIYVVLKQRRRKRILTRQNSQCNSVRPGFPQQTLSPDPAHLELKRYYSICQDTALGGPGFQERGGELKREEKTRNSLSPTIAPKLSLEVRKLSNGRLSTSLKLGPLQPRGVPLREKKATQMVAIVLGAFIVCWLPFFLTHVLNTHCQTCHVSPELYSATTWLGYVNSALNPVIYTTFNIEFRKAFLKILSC

Regarding `CCOc1cccc2cc(C(C)NCC3(O)CCCCC3)oc12` (centres unmarked) [O4LE6], the EC50 is over 10000 nM at DRD3 F1063.28A and 24.1 nM at DRD2 (D2 long receptor). The “GPCRome agonism screen response” value on 320 non-olfactory GPCRs [1] is 0.7017 and 0.6641 and 0.72. In addition, the “Fold of Basal” value on 320 non-olfactory GPCRs [2] was 0.906 and 0.8507 and 1.071 and 1.142; at 320 non-olfactory GPCRs [3], 0.7929 and 1.009 and 0.769 and 1.275.
